Assays:
[1] = Pharmacokinetics of compound Ib in male beagle dogs (i.v. and oral); assay type: in vivo; details: Dog
Method: The pharmacokinetic profile of compound Ib was evaluated in male beagle dogs following intravenous (i.v.) and oral (p.o.) administration. A single dose of compound Ib was dosed intravenously at 0.5 mg/kg and orally at 2 mg/kg. Blood samples were collected at predetermined time points after each dosing and the corresponding plasma samples were analyzed using an LC-MS/MS method. Plasma concentration-time curves were constructed using the plasma concentrations and the corresponding pharmacokinetic parameters were derived by non-compartmental analysis.
Six animals weighing 11.5, 9.9, 9.9, 14.6, 11.1, and 9.8 kg, respectively, were used with Compound Ib dosed intravenously at 0.5 mg/kg (the first 3 animals) and orally at 2 mg/kg (the second 3 animals).
For i.v. dosing, a solution formulation of Compound Ib was prepared in 36.8% water/31.6% propylene glycol/31.6% N,N-dimethyl acetamide at 0.5 mg/mL and each animal received 1 mL/kg. For oral dosing at 2 mg/kg, a solution formulation was prepared in 1% hydroxypropyl methylcellulose at 0.5 mg/mL and each animal received 4 mL/kg.
For dosing, blood (˜1 mL) was drawn at pre-dose and at 5, 15, and 30 min, 1, 2, 4, 8, 12, and 24 hours post-dose. Blood was sampled from the foreleg vein via butterfly catheter and then placed into chilled polypropylene tubes containing K2EDTA as the anticoagulant and kept on ice until centrifugation. Plasma was collected through centrifugation and shipped on dry ice for sample analysis.
(§1) Plasma samples (50 μL) were extracted with 200 μL 0.1% formic acid/acetonitrile containing the internal standard on a linear shaker for 10 min and then centrifuged at 3700 g for 10 min at 4° C. (Allegra X-15R centrifuge, Beckman Coulter, Inc., Fullerton, Calif.). 100 μL of the resulting supernatant was transferred into a new plate and mixed with 100 μL 0.1% formic acid in water for LC-MS/MS analysis.
Calibration standard samples were prepared with blank dog plasma, at 5000, 2500, 1000, 500, 100, 50, 20, 10, 4, 2 and 1 ng/mL of Compound Ib. Three levels of the standard stock solutions (1000, 100 and 10 ng/mL) were spiked separately into male beagle dog plasma and used as QC samples. Plasma standards and QC samples were treated identically and prepared in parallel with the plasma samples.
Sample analysis was performed by LC-MS/MS (details shown below). Acquisition and peak integration were performed with the Applied Biosystems-Sciex Analyst software (version 1.4.2). Calibration curves were obtained through quadratic regression with a weighting of 1/x. The calibration range was 1-5000 ng/mL.
(§2) Instrument: • Applied Biosystems API 3000 mass spectrometer (Foster City, Calif.) • Agilent 1100 HPLC binary pump (Santa Clara, Calif.) • LEAP Technologies HTS Pal Autosampler (Carrboro, N.C.) • Thermo Scientific Cohesive Aria LX-2 duplexing system (Waltham, Mass.) Column: Zorbax Eclipse XDB Phenyl 2.1×50 mm (Agilent, Santa Clara, Calif.) Injection Volume: 10 μL Flow Rate: 0.60 mL/min
Ionization Mode: Turbo Ionspray ESI Detection Mode: Positive MRM For each dosing route, descriptive pharmacokinetic parameters were determined by a standard non-compartmental analysis (Wagner, 1993) from the plasma concentration-time curve. • CL: Total body clearance • AUC: area under the curve • F: Bioavailability.
Pharmacokinetic analysis was performed by using XLFit® v.4.3.1 (ID Business Solutions Inc., Alameda, Calif.) in conjunction with Microsoft Excel 2003.

[2] = Pharmacokinetics in Sprague-Dawley rats (i.v. and oral); assay type: in vivo; details: for clearance / bioavailability / AUC: rat, plasma; for clearance: iv, 0.5 mg/kg; for bioavailability: po 2 mg/kg, iv 0.5 mg/kg; for AUC: po, 2 mg/kg
Method: Compound Ib and PF-04136309 were dosed intravenously at 0.5 mg/kg and orally at 2 mg/kg, in aqueous hydroxypropyl methylcellulose. Blood samples were collected at predetermined time points after each dosing and the corresponding plasma concentrations of Compound Ib and PF-04136309 were analyzed using an LC-MS/MS method. Plasma concentration-time curves were constructed and the corresponding pharmacokinetic parameters were derived using non-compartmental analysis.
Blood (0.2 mL) was sampled through the jugular vein or cardiac puncture (for terminal point only) at pre-dose, 2, 5, 10, 15, and 30 min, 1, 2, 4, 6, and 8 hours post-dose for i.v. dosing and at pre-dose, 5, 15, and 30 min, 1, 1.5, 2, 4, 6, and 8 hours post-dose for oral dosing. Blood samples were collected into chilled polypropylene tubes containing sodium EDTA as the anticoagulant and plasma was collected through centrifugation (Eppendorf Centrifuge 5417R) at 10,000 rpm and 4° C. for 6 minutes and stored at −20° C. until analysis.
as §1, with “acetonitrile” for “0.1% formic acid/acetonitrile”
Calibration standard samples were prepared with blank Sprague-Dawley rat plasma, at 5000, 2500, 1000, 500, 100, 50, 20, 10, 4, 2 and 1 ng/mL of compound. Three levels of the standard stock solutions (1000, 100 and 10 ng/mL) were spiked separately into male Sprague-Dawley rat plasma and used as QC samples. Plasma standards and QC samples were treated identically and prepared in parallel with the plasma samples. Extracted samples were analyzed by LC-MS/MS.
Mass spectrometer acquisition and integration were performed with Applied Biosystems-Sciex Analyst software (version 1.4.2). The calibration curve was obtained through a quadratic regression and the calibration range was 2-5000 ng/mL.
as §2, with “•” for “• Applied Biosystems”, “(Applied Biosystems, Foster” for “(Foster”
Ionization Mode: Electrospray (ESI). Detection Mode: Positive MRM. For each dosing route, descriptive pharmacokinetic parameters were determined by a standard non-compartmental analysis (Wagner, 1993) from the plasma concentration-time curve. Pharmacokinetic analysis was performed by using XLFit® v.4.3.1 (ID Business Solutions Inc., Alameda, Calif.) in conjunction with Microsoft Excel 2003.

[3] = system: non-resectable pancreatic adenocarcinoma; test: Open-label Phase Ib clinical trial of compound Ib plus FOLFIRINOX, response by RECIST 1.1; assay type: in vivo, patients; details: for Tumor control rate: 12 weeks of treatment, 150 mg twice daily plus FOLFIRINOX; for Progressive disease / Stable disease / Overall response rate: 12 weeks, plus FOLFIRINOX; for Overall response rate: RECIST 1.1, all partial responses
Method: Fifty-four patients age 18 years or older were enrolled on an open-label phase 1-b interventional study to evaluate the safety and efficacy of compound Ib in patients with pancreatic adenocarcinoma also receiving FOLFIRINOX chemotherapy. Dosing consisted of 150 mg tablets for oral administration once or twice daily given orally for at least 12 weeks.
Inclusion criteria included: • Histologically or cytologically confirmed non-resectable pancreatic adenocarcinoma with or without metastases • Eastern Cooperative Oncology Group (ECOG) performance status score ≤2 • Anticipated life expectancy a ≥12 weeks • Radiographically measurable disease acc. to RECIST 1.1 • Use of adequate contraception (as described in protocol) • Ability to provide written informed consent and comply with study requirements.
Exclusion criteria included: • Received other cancer treatment or investigational drug within 4 weeks prior to screening • Women who are pregnant or breastfeeding • Had major surgery within 4 weeks of first dose of study drug • Inadequate liver, renal or bone marrow function within 2 weeks of first dose • Serious concurrent illness, altered medical status or any uncontrolled medical condition • Any infection requiring antibiotic or anti-viral treatment within 4 weeks of screening • Known active HIV, HBV or HCV infection • Inability to swallow tablets • History or presence of any medical condition or disease which, in the opinion of the investigator, may place the subject at unacceptable risk for study participation. Initial 12 week overall response rate (ORR) results:
The open-label, multi-center, Phase Ib clinical trial was designed to evaluate the safety and efficacy of orally administered compound Ib plus FOLFIRINOX in 50 patients with non-resectable pancreatic cancer. Patients received 150 mg of compound Ib twice daily for 12 weeks. After 12 weeks, patients who achieved stable disease or better (as measured by Response Evaluation Criteria In Solid Tumors, or RECIST 1.1), were eligible to continue on study for at least an additional 12 weeks unless disease progression occured. Per protocol, the Eastern Cooperative Oncology Group (ECOG) performance status of patients in the trial was 0, 1 or 2.
Patients enrolled in the study had advanced non-resectable pancreatic cancer (78% of patients having metastatic disease), and an Eastern Cooperative Oncology Group (ECOG) Performance Status score of less than or equal to 2. In order to assess the initial treatment effect of compound Ib, the study provided for assessment of overall response rate (ORR) based on computerized tomography (CT) imaging following 12 weeks of treatment.
The pre-specified evaluable ORR population consists of all patients who have at least one post-baseline disease CT assessment. Response rate results at 12 weeks of treatment were as follows: […]

[4] = male, beagle, plasma, po, mean, N = 3, dosed at 2 mg/kg
[5] = ITT Patient Population (N = 50)
[6] = Pre-Specified Evaluable Patient Population (N = 41)

Structure (SMILES) | Clearance compared to PF-4136309 ([1]; at comparable doses) | Exposure (AUC) compared to PF-4136309 ([1]; at comparable doses) | clearance ([1]; male, beagle, plasma, iv, mean, N = 3, dosed at 0.5 mg/kg) [mL/min/kg] | AUC [1, 4] [ng·h/mL] | bioavailability [1, 4] [%] | Clearance compared to PF-4136309 [2] | Exposure (AUC) compared to PF-4136309 [2] | clearance [2] [mL/min/kg] | bioavailability [2] [%] | AUC [2] [ng·h/mL] | Tumor control rate [3, 5] | Tumor control rate ([3]; Pre-Specified Evaluable Patient Population (N = 41), includes stable disease, partial response and complete response) | Progressive disease [3, 5] | Stable disease [3, 5] | Progressive disease [3, 6] | Stable disease [3, 6] | Overall response rate [3, 5] | Overall response rate [3, 6] | Tolerability ([3]; advanced pancreatic cancer patients, combined with FOLFIRINOX) | Incidence and rate of adverse events ([3]; compound Ib combined with FOLFIRINOX, versus historical FOLFIRINOX alone)
Cc1cnc(C(=O)c2ccnc3[nH]ccc23)c(NS(=O)(=O)c2ccc(Cl)c(C(F)(F)F)c2)c1 [Compound Ib] | much lower | much higher | 0.7 | 67000 | 143 | much lower | much higher | 11.5 | 133 | 3910 | 32/50 (64%) | 32/41 (78%) | 9/50 (18%) | 17/50 (34%) | 9/41 (22%) | 17/41 (41%) | 15/50 (30%) | 15/41 (37%) | well tolerated | consistent with data reported historically for FOLFIRINOX alone
O=C(NCC(=O)N1CC[C@H](N[C@H]2CC[C@@](O)(c3ccc(-c4ncccn4)cn3)CC2)C1)c1cccc(C(F)(F)F)c1 [PF-04136309, reference compound] |  |  |  |  |  |  |  | 71.1 | 22 | 111 |  |  |  |  |  |  |  |  |  | 

Source: patent US10583131B2, “Methods of treating pancreatic cancer” (ChemoCentryx, Inc., priority 2016, dated 2020)
